According to patent US20260272936A1, “TREATMENT OF CANCER WITH A PARG INHIBITOR” (858 Therapeutics, Inc., priority 2023, published 2026):

Columns and labels:
[1] = test system: HCC1428 breast cancer xenograft; experiment: HCC1428 breast cancer CDX model, tumor volume and body weight; format: in vivo, BALB/c nude mice; settings: for % TGI: 25 days
Experimental: Two separate studies were performed. […] Groups of 8 animals each were established by random assignment. Tumor volumes and body weights were measured twice weekly. The tumor volume (TV) in mm^3 was estimated using the formula: TV=a×b^2/2, where a and b are the long and short diameters of a tumor, respectively. For each treatment group, if the mean TV at the end of study was greater than the mean tumor volume at treatment initiation, then tumor growth inhibition (TGI) was calculated using the formula: % TGI=[1-(Mean TreatedTVFinal−Mean Treated TVInitial)/(Mean Vehicle TVFinal−Mean VehicleTVInitial)]×100. If the mean TV of the treatment group at the end of study was less than the mean tumor volume at treatment initiation, then tumor regression (REG) was calculated using the formula: % REG=[(Mean Treated TVInitial−Mean Treated TVFinal)/Mean TreatedTVInitial]×100. Statistical analysis of end-of-study tumor volumes was performed using two-way repeated measures ANOVA followed by post hoc comparisons of the mean.
The PARP inhibitor niraparib was included as a comparator and dosed orally QD at a dose of 45 mg/kg.
(§1) The mice in the 50 mg/kg BID group were dosed every day whereas the mice in the […] were dosed for the first 5 days of each 7-day cycle, such that the total weekly dose was the same between these two groups. At the end of the study, tumor tissue was collected for the vehicle, 50 mg/kg BID, and 30, 50 and 100 mg/kg QD dose groups and formalin-fixed and paraffin embedded (FFPE) for γH2AX immunohistochemistry. γH2AX expression in FFPE tumor tissue was evaluated by staining and was performed using immunohistochemistry and validated antibody conditions at Histowiz (Long Island City, NY, USA). The γH2AX IHC images were then quantified in-house using QuPath software. The total number of nuclei objects per tumor section based on hematoxylin counter-staining (blue) were segmented using a Stardist algorithm and the number of γH2AX positive DAB (3,3′ Diaminobenzidine) stained cells (brown) quantified using object classification with a pre-trained random forest model based on DAB staining parameters including intensity and standard deviation.

[2] = test system: γH2AX in HCC1428 tumor tissue; experiment: γH2AX immunohistochemistry of HCC1428 xenograft tumor tissue (Study 2); format: in vivo, BALB/c nude mice; settings: vehicle 2.4%
Experimental: as §1
% γH2AX positive=(#γH2AX positive nuclei/#total nuclei)*100
Statistical analysis of the γH2AX staining was conducted using Ordinary one-way ANOVA with Dunnett's multiple comparisons test and differences considered significant at a calculated probability p≤0.05.

Parental SNU601 cells = experiment: 6-day proliferation, nuclei count, parental line; format: cell-based; settings: Homo sapiens, SNU-601, 144 h, read-out: IC50 inhibition of proliferation
Experimental: The SNU601 gastric carcinoma cell line (Creative Bioarray, Cat #CSC-C9686L) was cultured in RPMI media containing glutamax, 10% fetal bovine serum, and 1% penicillin/streptomycin at 37° C., 5% CO2. To generate a PARP inhibitor resistant cell line, an IC20 concentration of niraparib was added to the culture media.
Compound 1 and the PARP inhibitor niraparib were tested in cellular proliferation assays using the parental SNU601 cell line and the SNU601 cell line with acquired PARPi resistance. For the proliferation assays, cells were plated in 96-well plates (Corning costar 3603) at 2500-5000 cells/well in normal growth media. The next day, compound dissolved in vehicle (0.5% DMSO in media) was added to generate a 7- to 10-point concentration curve with half-log dilutions and starting concentrations of 10 or 31.6 μM. After 6 days of compound or vehicle treatment, the cells were fixed with a solution of 8% paraformaldehyde, 0.2% Triton X-100 for 20 minutes. After washing the cells with PBS, the nuclei were stained by the addition of DAPI (4′,6-diamidino-2-phenylindole) and incubation for 20 minutes. The number of nuclei in each well were counted by imaging the plates on an Image Xpress Pico automated cell imaging system (Molecular Devices). The percent proliferation after treatment was determined by normalizing the number of nuclei in treated wells to the vehicle-treated wells. […]

HCC1806 cells = experiment: 6-day growth assay, Compound 1 in combination with exatecan; format: cell-based; settings: Homo sapiens
Experimental: (§2) The activity of Compound 1 in combination with exatecan was evaluated in the HCC1954, HCC1806, and GP2D cancer cell lines in a 6-day growth assay. HCC1954 (Cat #CRL-2338) and HCC1806 (Cat #CRL-2335) cells were obtained from American Type Culture Collection (ATCC) and maintained in ATCC modified RPMI (Cat #30-2001)+10% FBS (Cat #A3160502)+1% penicillin/streptomycin (Cat #15140-122) in a humidified incubator at 37° C., 5% CO2. GP2D cells were obtained from ECACC (Cat #95090714-1VL) and maintained in DMEM+GlutaMAX (Cat #10566-016)+10% FBS (Cat #A3160502)+1% penicillin/streptomycin (Cat #15140-122). Cells were seeded at 2,500 cells/well (HCC1954 and GP2D) or 2,000 cells/well (HCC1806) in 100 μL of growth medium in a 96-well plate (Corning costar Cat #3603) and allowed to adhere overnight at 37° C. with 5% CO2. The next day, serial dilutions of Compound 1 and exatecan were prepared and added to the corresponding wells of a 96-well plate. A solution of 0.1% DMSO in medium was used as the negative control. Cells were incubated with compound for 6 days at 37° C. with 5% CO2, then fixed, stained, and counted as described in Example 3. Concentration response-curves and IC50 values were generated by non-linear regression analysis using a 4-parameter variable slope fit in GraphPad Prism 10 software. Potential synergy between Compound 1 and exatecan was assessed using Zero interaction potency (ZIP), Highest Single Agent (HSA), Bliss, and Loewe synergy models to find the most synergistic area score, where scores >10 indicate that the interaction between the two drugs is likely to be synergistic (Ianevski et al. 2020).

HCC1954 cells = experiment: as above; format: cell-based; settings: Homo sapiens
Experimental: as §2

For `[2H]C([2H])(c1cnn(C)c1)N1C(=O)c2cc(S(=O)(=O)NC3(C)CC3)ccc2N2C1=NC[C@H]2C` [Compound 1, (R)-1-methyl-4-((1-methyl-1H-pyrazol-4-yl)methyl-d2)-N-(1-methylcyclopropyl)-5-oxo-1,2,4,5-tetrahydroimidazo[1,2-a]quinazoline-7-sulfonamide], the “mean body loss over the treatment period” value ([1]; Study 1, 75 mg/kg BID) was under 4%, the “mean body weight change over the treatment period” value ([1]; Study 1, 100 mg/kg QD) was “mean body weight increase” and the “% TGI” value ([1]; Study 2, 10 mg/kg QD oral) was 26% TGI. For the same compound, the “% TGI” value ([1]; Study 2, 30 mg/kg QD oral) was 35% TGI, the “mean body weight loss during the treatment period” value ([1]; Study 2, all dose groups) was at most 2% and the “% γH2AX positive cells in tumor tissue” value ([2]; 30 mg/kg QD) was 3.7% +/− 0.4. For the same compound, the “% γH2AX positive cells in tumor tissue” value ([2]; 50 mg/kg BID) was 6.8% +/− 0.4, the “% γH2AX positive cells in tumor tissue” value ([2]; 50 mg/kg QD) was 4.2% +/− 0.3 and the “% γH2AX positive cells in tumor tissue” value ([2]; 100 mg/kg QD) was 5.9% +/− 0.5. For the same compound, the IC50 (Parental SNU601 cells) was 210 nM, the IC50 (HCC1806 cells; exatecan 0.001 nM) was 1900 nM and the IC50 (HCC1806 cells; exatecan 0.01 nM) was 1500 nM. It also gave an IC50 (HCC1806 cells; exatecan 0.03 nM) of 1200 nM, an IC50 (HCC1806 cells; exatecan 0.1 nM) of 300 nM and an IC50 (HCC1954 cells; exatecan 0.001 nM) of 6900 nM. The IC50 (HCC1954 cells; exatecan 0.01 nM) was 7200 nM, the IC50 (HCC1954 cells; exatecan 0.03 nM) was 6600 nM and the IC50 (HCC1954 cells; exatecan 0.1 nM) was 5200 nM. For the same compound, the IC50 (HCC1954 cells; exatecan 0.3 nM) was 900 nM.
